From patent US8748423B2, “Compositions and methods for the prevention and treatment of cancer” (Kinex Pharmaceuticals, LLC, priority 2010, dated 2014) come the findings set out here.

Broadly, the GI50 is the concentration that inhibits growth by half. As usually defined, the IC50 is the concentration needed to halve the response being measured. The low end stands for greater potency, the high end for weaker potency.

For data set [1], the system named is colon tumor cell lines KM12. The data set can be described thus: standard tumor growth inhibition assay, KM12. In kind it is cell-based. Conditions: Homo sapiens, KM12, read-out: GI50 (KM12). The method, then: (§1) These GI50's were determined using the standard tumor growth inhibition assays, similar to that described in detail for the HT29 cell line above, and the following cell lines: colon tumor cell lines KM12, lung cancer cell line H460 and lung cancer cell line A549 (all are NCI standard tumor cell lines).

Data set [2] relates to lung cancer cell line H460. The data set can be described thus: standard tumor growth inhibition assay, H460. The format is cell-based. Conditions: Homo sapiens, NCI-H460, read-out: GI50 (H460). As for the experimental part:
as §1

Data set [3] concerns c-Src 3T3 cells. Nature of the data set: BrdU cell growth inhibition assay, c-Src 3T3. In kind it is cell-based, mouse. As for the experimental part: (§2) The GI50s for several of the compounds of the invention were assayed as described herein.
The c-Src 3T3 is a mouse fibroblast NIH 3T3 normal cell line that has been transfected with a point-mutant of human c-Src wherein tyrosine 527 has been converted to a phenylalanine. This mutation results in “constitutively active” c-Src because phosphorylation on tyrosine 527 results in auto-inhibition of Src by having it fold back on its own SH2 domain. With a Phe there, this phosphorylation can't occur and therefore auto-inhibition can't occur. Thus, the always fully active mutant Src then converts the normal mouse fibroblasts into rapidly growing tumor cells. […]
In the BrdU Assay for cell growth inhibition, quantitation of cell proliferation was based on the measurement of BrdU incorporation during DNA synthesis. […]
The growth inhibition (GI) is determined from the formula GI=(T0−Tn×100/T0−CONn) where T0 is the BrdU growth of untreated cells at time “0”, Tn is the BrdU growth of treated cells at day “n” and CONn is the control BrdU growth of control cells at day “n”. […]
Seeded 96 well plates were allowed to attach overnight for 18-24 hours, either at 37° C. and 5% CO2 for HT-29 or at 37° C. and 10% CO2 for c-Src 3T3. Approx 18-24 hours after seeding, the initial growth of cells (T0) was determined for untreated cells using the BrdU assay. […]

The subject of data set [4] is Daoy. Nature of the data set: brain tumor cell line growth inhibition, Daoy. The format is cell-based. Conditions: Homo sapiens, desmoplastic cerebellar medulloblastoma. As for the experimental part: (§3) These GI50s were determined using standard tumor growth inhibition assays.
The subject of data set [5] is SK-N-MC. The data set can be described thus: brain tumor cell line growth inhibition, SK-N-MC. In kind it is cell-based. To be noted: Homo sapiens, neuroepithelioma. As for the experimental part:
as §3

The test system of data set [6] is SW1088. The data set can be described thus: brain tumor cell line growth inhibition, SW1088. In kind it is cell-based. To be noted: Homo sapiens; SW1088, astrocytoma. The method, then: as §3
Data set [7] relates to LN-18. Nature of the data set: brain tumor cell line growth inhibition, LN-18. The format is cell-based. To be noted: Homo sapiens; LN-18, glioblastoma; glioma. As for the experimental part: as §3
In data set [8] the test system is SK-N-FI. Nature of the data set: brain tumor cell line growth inhibition, SK-N-FI. The format is cell-based. To be noted: Homo sapiens, neuroblastoma. As for the experimental part: as §3
In data set [9] the test system is U87. Nature of the data set: brain tumor cell line growth inhibition, U87. The format is cell-based. Conditions: Homo sapiens, U-87 MG; U87, glioblastoma; astrocytoma. The method, then: as §3
The subject of data set [10] is GL261. The data set can be described thus: brain tumor cell line growth inhibition, GL261. Conditions: GL261, mouse glioblastoma. In kind it is cell-based. The method, then:
as §3

Data set [11] is described as follows: body weight in GL261 glioma survival study. The format is in vivo, C57BL/6 mice. The method, then:
(§4) The studies were conducted in C57BL/6 mice. GL261 glioma cells (1×10^5 in 5 μl DMEM) were implanted intracranial coordinates: bregma, lateral 2.0 mm, anterior 1.2 mm, 3.0 mm depth dura. Treatment was initiated 3 days post implantation.
FIGS. 2A-F show the weight gain in each of the C57BL/6 mice in the different treatment groups. The average weight at endpoint for each of the treatment groups is shown below in Table 12. FIG. 3 is a graph showing the average weights over a 40-day period for each of the treatment groups.

Data set [12] concerns HT29 cell line. Nature of the data set: BrdU cell growth inhibition assay, HT-29. The format is cell-based. To be noted: Homo sapiens. As for the experimental part:
as §2
The HT29 cell line is a NCI standard human colon carcinoma cell line. […] HT29 cells were routinely cultured in McCoy's 5A medium supplemented with Fetal Bovine Serum (1.5% v/v) and L-glutamine (2 mM).
In the BrdU Assay for cell growth inhibition, quantitation of cell proliferation was based on the measurement of BrdU incorporation during DNA synthesis. The Cell Proliferation ELISA BrdU assay kit (colorimetric) was obtained from Roche Applied Science and performed as per vendor instructions.
The growth inhibition (GI) is determined from the formula GI=(T0−Tn×100/T0−CONn) where T0 is the BrdU growth of untreated cells at time “0”, Tn is the BrdU growth of treated cells at day “n” and CONn is the control BrdU growth of control cells at day “n”. The GI50 was extrapolated and the data plotted using XL-Fit 4.0 software.
For 96 well culture plate experiments, c-Src 3T3 medium was supplemented with 10 mM HEPES buffer. […]
Seeded 96 well plates were allowed to attach overnight for 18-24 hours, either at 37° C. and 5% CO2 for HT-29 or at 37° C. and 10% CO2 for c-Src 3T3. Approx 18-24 hours after seeding, the initial growth of cells (T0) was determined for untreated cells using the BrdU assay. […] Plates were assayed for BrdU and the data analyzed as above for GI50. […]

Data set [13] relates to GL261 glioma. Nature of the data set: intracranial GL261 glioma survival study. In kind it is in vivo, C57BL/6 mice. To be noted: 5 mg/kg weekly oral. The method, then:
as §4
The median survival range and the log-rank (Mantel-Cox) statistical test results comparing the survival distributions of the samples.

As for `O=C(Cc1ccc(-c2ccccc2)cc1)NCc1cccc(F)c1` [Compound 2], the GI50 worked out at 0.41 µM in [1] and 0.89 µM in data set [2].

As for `O=C(Cc1ccc(-c2ccc(OCCN3CCOCC3)cc2)cn1)NCc1cccc(F)c1` [Compound 38], the “GI50 (c-Src 3T3)” value in [3] is “inactive”.

Take `O=C(Cc1ccc(-c2ccc(OCCN3CCOCC3)cc2)cn1)NCc1ccccc1` [Compound 134, 2-(5-(4-(2-morpholinoethoxy)phenyl)pyridin-2-yl)-N-benzylacetamide]: the IC50 in [4] came to 0.0136 µM; in data set [5], 0.0058 µM; in data set [6], 0.0761 µM; in data set [7], 0.0145 µM; in [8] it was 0.0017 µM; in data set [9], 0.0331 µM. The IC50 in data set [10] amounted to 0.0137 µM. The “Average weight at endpoint” value in [11] (5 mg/kg (Compound 134, bid)) is on record as 14.3 g.

In the case of `CN1CCN(CCOc2ccc(-c3ccc(CC(=O)NCc4cccc(F)c4)nc3)c(F)c2)CC1` [Compound 137], it took 0.026 µM to inhibit growth in [12] by half (GI50).

For `Cn1nnc2c(C(N)=O)ncn2c1=O` [Temodar ®, reference compound], in data set [13], the Median survival is 29 and the “survival Range” value is 26-29. Also, in data set [11] (5 mg/kg (Temodar, once weekly)), the “Average weight at endpoint” value was 13.3 g.
